Experiment [1] addresses T1, Vascular endothelial growth factor receptor 2 (Homo sapiens, UniProt P35968). Description: Inhibitory activity against VEGFR2 kinase at 20 uM.
Experiment [2] concerns the target T2, Fibroblast growth factor receptor 1 (Homo sapiens, UniProt P11362). Put plainly: Inhibitory activity against FGFR1 kinase at 20 uM.
Target sequence in this assay (P11362 22-822 limits assumed): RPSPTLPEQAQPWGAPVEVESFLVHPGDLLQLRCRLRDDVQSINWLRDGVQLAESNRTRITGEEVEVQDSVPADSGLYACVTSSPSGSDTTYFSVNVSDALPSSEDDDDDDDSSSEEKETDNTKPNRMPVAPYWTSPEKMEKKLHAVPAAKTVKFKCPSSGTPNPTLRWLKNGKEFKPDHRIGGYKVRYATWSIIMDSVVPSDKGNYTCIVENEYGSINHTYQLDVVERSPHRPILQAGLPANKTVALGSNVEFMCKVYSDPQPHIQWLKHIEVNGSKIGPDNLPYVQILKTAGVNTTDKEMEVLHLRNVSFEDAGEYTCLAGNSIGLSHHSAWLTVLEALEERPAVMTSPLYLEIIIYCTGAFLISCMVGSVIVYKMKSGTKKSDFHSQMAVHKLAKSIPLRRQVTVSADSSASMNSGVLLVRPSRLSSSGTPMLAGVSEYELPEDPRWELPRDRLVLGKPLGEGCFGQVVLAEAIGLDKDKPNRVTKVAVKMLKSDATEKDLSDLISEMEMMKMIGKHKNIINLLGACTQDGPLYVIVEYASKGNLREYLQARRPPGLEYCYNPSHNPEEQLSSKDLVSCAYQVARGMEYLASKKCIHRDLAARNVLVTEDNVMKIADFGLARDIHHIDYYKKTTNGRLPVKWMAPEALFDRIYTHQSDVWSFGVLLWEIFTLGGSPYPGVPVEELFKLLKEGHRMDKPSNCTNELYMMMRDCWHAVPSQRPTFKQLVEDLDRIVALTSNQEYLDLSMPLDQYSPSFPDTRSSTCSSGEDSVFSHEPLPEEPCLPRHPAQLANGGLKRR
The target of experiment [3] is T3, Epidermal growth factor receptor (Homo sapiens, UniProt P00533). As to conditions: 20 uM.
Description: Inhibitory activity against EGFR kinase at 20 uM
Experiment [4] addresses T4, Platelet-derived growth factor receptor beta (Homo sapiens, UniProt P09619). Description: Inhibitory activity against PDGFRbeta kinase at 20 uM.
In experiment [5] the target is T1, Vascular endothelial growth factor receptor 2. Put plainly: Inhibitory activity against VEGFR2 kinase.
In experiment [6] the target is T3, Epidermal growth factor receptor. Put plainly: Intracellular inhibition of autophosphorylation of EGFR in A431 cells. Format: functional, cell-based. The note with it: A-431.
Another experiment deals with A-431. Put plainly: Cytotoxicity against epidermoid carcinoma A431 cell line. As to conditions: Homo sapiens. Type of experiment: functional, cell-based.
For experiment [7], the target named is T4, Platelet-derived growth factor receptor beta. Put plainly: Inhibitory activity against PDGFRbeta kinase.
Experiment [8] addresses T3, Epidermal growth factor receptor. Put plainly: Inhibitory activity against EGFR kinase.
Experiment [9] deals with T2, Fibroblast growth factor receptor 1. Description: Inhibitory activity against FGFR1 kinase.
Target sequence in this assay (P11362 whole entry): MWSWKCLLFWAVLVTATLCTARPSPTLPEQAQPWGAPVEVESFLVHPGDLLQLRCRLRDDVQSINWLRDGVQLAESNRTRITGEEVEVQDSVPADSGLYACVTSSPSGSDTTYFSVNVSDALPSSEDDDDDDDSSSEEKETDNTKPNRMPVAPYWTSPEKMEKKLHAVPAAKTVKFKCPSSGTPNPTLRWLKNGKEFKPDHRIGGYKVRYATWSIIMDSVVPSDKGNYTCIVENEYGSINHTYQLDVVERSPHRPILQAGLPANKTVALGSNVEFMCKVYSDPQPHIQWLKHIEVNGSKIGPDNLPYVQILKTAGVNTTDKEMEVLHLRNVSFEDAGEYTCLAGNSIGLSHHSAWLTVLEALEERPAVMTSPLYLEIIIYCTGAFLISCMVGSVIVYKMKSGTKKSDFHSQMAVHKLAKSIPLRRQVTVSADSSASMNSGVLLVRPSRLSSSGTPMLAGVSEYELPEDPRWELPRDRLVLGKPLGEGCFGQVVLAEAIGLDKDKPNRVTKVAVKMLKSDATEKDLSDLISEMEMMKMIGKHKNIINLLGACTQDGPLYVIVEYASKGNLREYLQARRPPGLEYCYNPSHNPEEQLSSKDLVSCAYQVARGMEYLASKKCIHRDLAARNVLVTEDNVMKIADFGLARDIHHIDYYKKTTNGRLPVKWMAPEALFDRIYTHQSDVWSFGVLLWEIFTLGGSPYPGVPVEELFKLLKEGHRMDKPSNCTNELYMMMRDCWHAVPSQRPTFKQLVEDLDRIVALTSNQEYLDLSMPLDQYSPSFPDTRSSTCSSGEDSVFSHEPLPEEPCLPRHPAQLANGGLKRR
Experiment [10] relates to HUVEC. Description: Inhibition of HUVEC tube formation at 10 uM. Format: functional, cell-based. The note with it: Homo sapiens.
Experiment [11] relates to HUVEC. Description: Inhibition of HUVEC tube formation at 2 uM. The note with it: Homo sapiens. Type of experiment: functional, cell-based.
In experiment [12] the target is T3, Epidermal growth factor receptor. Description: Inhibition of ERK1 phosphorylation in EGF-treated A431 cells at 1 uM. Type of experiment: functional, cell-based. The note with it: A-431.
Experiment [13] shares this target. Description: Inhibition of MEK1 phosphorylation in EGF-treated A431 cells at 1 uM. The note with it: A-431. Format: functional, cell-based.
The target is the same in experiment [14]. Description: Inhibition of ERK2 phosphorylation in EGF-treated A431 cells at 1 uM. The note with it: A-431. Type of experiment: functional, cell-based.
Experiment [15] shares this target. Description: Inhibition of MEK2 phosphorylation in EGF-treated A431 cells at 1 uM. Type of experiment: functional, cell-based. The note with it: A-431.

Calls of active or inactive are those of the source. No cut-off for these calls is given here.

T3 sequence (P00533 whole entry): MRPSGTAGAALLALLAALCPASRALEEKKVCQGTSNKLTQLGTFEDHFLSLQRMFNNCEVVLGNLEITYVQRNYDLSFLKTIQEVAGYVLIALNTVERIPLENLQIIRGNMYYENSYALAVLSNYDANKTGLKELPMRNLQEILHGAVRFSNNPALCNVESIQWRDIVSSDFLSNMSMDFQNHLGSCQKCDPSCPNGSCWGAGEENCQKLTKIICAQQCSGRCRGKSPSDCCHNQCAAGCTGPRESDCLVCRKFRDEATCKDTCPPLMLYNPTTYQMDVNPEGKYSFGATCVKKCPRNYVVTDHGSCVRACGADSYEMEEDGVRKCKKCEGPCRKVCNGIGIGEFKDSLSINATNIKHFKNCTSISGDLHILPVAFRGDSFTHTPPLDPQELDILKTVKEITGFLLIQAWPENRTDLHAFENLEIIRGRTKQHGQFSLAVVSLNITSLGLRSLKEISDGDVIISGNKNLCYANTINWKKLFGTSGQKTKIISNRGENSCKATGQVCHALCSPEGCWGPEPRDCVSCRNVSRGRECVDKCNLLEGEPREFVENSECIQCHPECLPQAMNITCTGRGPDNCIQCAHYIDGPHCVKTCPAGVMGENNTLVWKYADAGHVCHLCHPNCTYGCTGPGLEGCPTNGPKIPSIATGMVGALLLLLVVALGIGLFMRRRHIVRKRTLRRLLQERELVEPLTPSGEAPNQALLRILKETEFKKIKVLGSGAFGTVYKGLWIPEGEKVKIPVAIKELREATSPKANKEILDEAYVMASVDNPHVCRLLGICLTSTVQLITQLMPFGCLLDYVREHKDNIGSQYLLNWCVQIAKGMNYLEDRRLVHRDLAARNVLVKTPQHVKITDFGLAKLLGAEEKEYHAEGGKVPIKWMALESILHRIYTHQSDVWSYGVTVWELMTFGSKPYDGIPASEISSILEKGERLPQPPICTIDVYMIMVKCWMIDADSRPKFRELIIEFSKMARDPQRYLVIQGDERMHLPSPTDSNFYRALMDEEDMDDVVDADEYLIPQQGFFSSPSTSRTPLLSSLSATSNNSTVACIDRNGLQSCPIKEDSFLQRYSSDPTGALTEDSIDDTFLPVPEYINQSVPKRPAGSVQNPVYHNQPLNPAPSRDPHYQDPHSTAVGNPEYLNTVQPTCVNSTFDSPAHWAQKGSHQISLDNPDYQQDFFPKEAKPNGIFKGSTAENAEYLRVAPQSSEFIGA
T1 sequence (P35968 whole entry): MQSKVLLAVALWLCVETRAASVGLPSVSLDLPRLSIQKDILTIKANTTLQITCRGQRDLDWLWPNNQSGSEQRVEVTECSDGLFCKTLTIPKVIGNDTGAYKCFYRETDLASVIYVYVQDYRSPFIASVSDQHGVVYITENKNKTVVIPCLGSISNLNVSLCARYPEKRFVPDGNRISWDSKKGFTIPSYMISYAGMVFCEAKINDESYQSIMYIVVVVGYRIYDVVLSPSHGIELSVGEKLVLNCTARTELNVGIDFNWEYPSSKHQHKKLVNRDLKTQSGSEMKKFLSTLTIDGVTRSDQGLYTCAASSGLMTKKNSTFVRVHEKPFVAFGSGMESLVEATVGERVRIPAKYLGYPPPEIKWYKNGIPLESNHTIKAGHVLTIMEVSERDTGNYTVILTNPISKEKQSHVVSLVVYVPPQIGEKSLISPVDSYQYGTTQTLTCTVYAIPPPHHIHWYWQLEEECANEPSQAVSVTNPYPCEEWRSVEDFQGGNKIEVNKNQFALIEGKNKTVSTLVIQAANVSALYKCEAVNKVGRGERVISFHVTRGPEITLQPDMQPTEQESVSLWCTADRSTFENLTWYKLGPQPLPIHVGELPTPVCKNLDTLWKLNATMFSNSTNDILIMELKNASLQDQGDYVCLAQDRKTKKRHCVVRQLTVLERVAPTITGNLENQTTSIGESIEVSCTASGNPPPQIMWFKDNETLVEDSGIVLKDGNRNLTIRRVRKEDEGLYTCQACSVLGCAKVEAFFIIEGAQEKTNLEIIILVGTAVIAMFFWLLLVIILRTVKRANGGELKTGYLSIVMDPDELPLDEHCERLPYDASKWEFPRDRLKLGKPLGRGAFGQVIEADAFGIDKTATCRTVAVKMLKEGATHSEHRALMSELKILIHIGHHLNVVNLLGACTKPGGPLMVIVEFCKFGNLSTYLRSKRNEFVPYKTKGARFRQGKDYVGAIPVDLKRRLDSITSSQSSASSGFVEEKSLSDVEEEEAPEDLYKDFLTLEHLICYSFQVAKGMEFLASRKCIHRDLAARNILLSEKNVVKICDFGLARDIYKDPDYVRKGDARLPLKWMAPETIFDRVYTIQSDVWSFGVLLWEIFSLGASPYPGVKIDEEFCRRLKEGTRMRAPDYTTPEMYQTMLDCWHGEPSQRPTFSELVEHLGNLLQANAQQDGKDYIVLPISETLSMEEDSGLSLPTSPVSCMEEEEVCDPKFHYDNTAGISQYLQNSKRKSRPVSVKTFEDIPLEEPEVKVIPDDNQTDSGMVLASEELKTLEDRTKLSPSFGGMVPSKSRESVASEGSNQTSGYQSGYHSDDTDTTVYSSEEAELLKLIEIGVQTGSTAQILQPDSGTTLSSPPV

For `COC(=O)c1c(O)c2ccccc2c2oc3c(c12)C(=O)c1ccccc1C3=O`, the inhibition in experiment [1] turned out to be 16%; in experiment [2], 12.6%; in experiment [3] it was 21.4%; in [4], 2.8%.
In the case of `CCN(CC)CCOc1c(C(=O)OC)c2c3c(oc2c2ccccc12)C(=O)c1ccccc1C3=O`, the inhibition in experiment [1] was 60.4%; in experiment [2] it was 61.1%; in experiment [3] it was 82.1%; in experiment [4], 64.1%. For the same compound, the concentration for half-maximal inhibition (IC50) in [5] amounted to 12.6 µM; with A-431 it was 1.7 µM; in [7], 15.9 µM; in experiment [8], 5.1 µM; in experiment [9] it was 8.8 µM. Also, the outcome (in [6]; with HUVEC [10]) was Active.
Take `CCCOc1c(C(=O)OC)c2c3c(oc2c2ccccc12)C(=O)c1ccccc1C3=O`: the inhibition in [1] was -2.1%; in experiment [2] it was 2.4%; in [3] it was 38.7%; in experiment [4] it was 5.7%. Moreover, the IC50 in experiment [7], in experiment [8] and in experiment [9] was over 50 µM each time.
For `COC(=O)c1c(OCc2ccc(C(F)(F)F)cc2)c2ccccc2c2oc3c(c12)C(=O)c1ccccc1C3=O`, the inhibition came out at 40.9% in experiment [1], 44.5% in experiment [2], 33.6% in [3] and 51.5% in [4].
The corresponding values for `COC(=O)c1c(OCc2ccc(OC)cc2)c2ccccc2c2oc3c(c12)C(=O)c1ccccc1C3=O` are 48.3%, 46%, 72.6% and 69.4%.
With `COC(=O)c1c(OC(C)=O)c2ccccc2c2oc3c(c12)C(=O)c1ccccc1C3=O`, the inhibition in experiment [2] is -8.1%; in experiment [3], 21.6%; in experiment [4], -0.3%.
Regarding `COC(=O)c1c(OCCN2CCN(Cc3ccc(C(F)(F)F)cc3)CC2)c2ccccc2c2oc3c(c12)C(=O)c1ccccc1C3=O`, the inhibition turned out to be 43.3% in experiment [1], 48.2% in [2], 47.5% in experiment [3] and 52% in experiment [4].
As to `N#CC(C#N)=C(N)/C(C#N)=C/c1cc(O)c(O)c(O)c1` [TYRPHOSTIN 51], the inhibition came out at 88% in experiment [1], 93% in experiment [2], 90% in experiment [3] and 82% in [4]. Also, the concentration for half-maximal inhibition (IC50) came out at 4.3 µM in experiment [5], 2.8 µM in experiment [7], 4.1 µM in experiment [8] and 4.9 µM in experiment [9].
For the compound `COC(=O)c1c(OCCCN(C)C)c2ccccc2c2oc3c(c12)C(=O)c1ccccc1C3=O`, the inhibition in experiment [1] amounted to 57.5%; in experiment [2], 51.2%; in [3] it was 72.4%; in [4], 57.2%. The IC50 in experiment [5] came to 15.5 µM; in experiment [7], 10.2 µM; in [8], 13.6 µM; in experiment [9], 38.4 µM.
In the case of `COC(=O)c1c(OCCN(C)C)c2ccccc2c2oc3c(c12)C(=O)c1ccccc1C3=O`, the inhibition turned out to be 57.1% in experiment [1], 51% in experiment [2], 71% in experiment [3] and 56.5% in experiment [4]. For the same compound, the IC50 was 13 µM in [5]; 1.1 µM in the experiment on A-431; 7.6 µM in experiment [7]; 31 µM in experiment [8]; 23.6 µM in experiment [9]. Moreover, the result with HUVEC [10] and in the experiment with HUVEC [11] was Active.
For the compound `COC(=O)c1c(OCCN2CCCC2)c2ccccc2c2oc3c(c12)C(=O)c1ccccc1C3=O`, the inhibition came to 86.5% in experiment [1], 65.2% in experiment [2], 77.1% in experiment [3] and 95.5% in experiment [4]. Also, the IC50 in experiment [5] came out at 5.5 µM; with A-431, 1.1 µM; in experiment [7] it was 8.7 µM; in experiment [8], 9 µM; in experiment [9] it was 23.8 µM.
Take `COC(=O)c1c(OC)c2ccccc2c2oc3c(c12)C(=O)c1ccccc1C3=O`: the inhibition was -0.8% in experiment [1], 10.5% in experiment [2], 16.7% in experiment [3] and 12.7% in experiment [4]. In addition, the figures for the IC50 in [7], in experiment [8] and in [9] were over 50 µM, 12.6 µM and over 50 µM, respectively.
With `COC(=O)c1c(OCCN2CCOCC2)c2ccccc2c2oc3c(c12)C(=O)c1ccccc1C3=O`, the inhibition in [1] is 40.7%; in [2], 41.4%; in experiment [3] it was 67.9%; in experiment [4] it was 46.2%.
On to `COC(=O)c1c(OCCN2CCCCC2)c2ccccc2c2oc3c(c12)C(=O)c1ccccc1C3=O`, for which the inhibition in experiment [1] is 81.7%; in experiment [2] it was 79.1%; in experiment [3] it was 84.3%; in experiment [4] it was 89.8%. Moreover, the IC50 in experiment [5] was found to be 4.6 µM; in the experiment on A-431, 4.3 µM; in [7], 5.5 µM; in experiment [8] it was 2.8 µM; in experiment [9] it was 7.1 µM. Also, the result (in [12]; in experiment [6]; in [13]; in experiment [14]; in [15]; with HUVEC [10]) was Active.
On to `COC(=O)c1c(OCc2ccncc2)c2ccccc2c2oc3c(c12)C(=O)c1ccccc1C3=O`, for which the inhibition in experiment [1] was 3.1%; in experiment [2], 2.6%; in experiment [3] it was 19.4%; in experiment [4], 2.9%.
For `COC(=O)c1c(OCCCN2CCN(c3ccccc3Cl)CC2)c2ccccc2c2oc3c(c12)C(=O)c1ccccc1C3=O`, the inhibition turned out to be 62.1% in experiment [1], 55.5% in experiment [2], 68.3% in experiment [3] and 68.9% in experiment [4].
For `COC(=O)c1c(OCc2ccc(C(=O)OC(C)(C)C)cc2)c2ccccc2c2oc3c(c12)C(=O)c1ccccc1C3=O`, the inhibition in [1] turned out to be 52.2%; in [2], 50.8%; in experiment [3] it was 57.1%; in [4], 62.2%.

The inhibition is the change of the read-out against control, counted positive when it falls. The IC50 is the midpoint of a concentration-inhibition curve. Low values mean higher potency, high ones lower potency.

For the origin of these results see ChEMBL document CHEMBL1149378, “Naphthofuroquinone derivatives: inhibition of receptor tyrosine kinases” (Bioorg Med Chem Lett, 2006).
